The record followed here is US5017570A, “Dibenzoxazepine compounds useful in the treatment of cerebral vasospasm or its sequela” (Chugai Seiyaku Kabushiki Kaisha, priority 1986, dated 1991).

Data set [1] has as its system regional cerebral blood flow (r-CBF). Nature of the data set: r-CBF by hydrogen clearance method in unanesthetized and unrestrained cats. Type of data set: in vivo, Siamese cats. The text has this:
The present inventors therefore employed the hydrogen clearance method wherein unanesthetized and unrestrained cats, each having a platinum electrode embedded in the cerebral cortex at four points, i.e., post. sigmoid G., post. sylvian G., mid. ecto-sylvian G. and post. suprasylvian G., and in the deeper area of the brain at three points, i.e., hippocampus, amygdala and hypothalamus, were exposed to a predetermined amount of hydrogen gas in a chamber. Using this method, the effects of compound Nos. 1 and 2 of the present invention on the regional cerebral blood flow (r-CBF) were evaluated. At the same time, analyses of blood pressure, the pH of blood, the gaseous components of the blood, and blood sugar levels were conducted with catheters being embedded in the femoral artery and vein.
One month before the start of experiment, a platinum electrode was embedded in the cerebral cortex of Siamese cats (both female and male) at four points, i.e., post. sigmoid G., post sylvian G., mid. ecto-sylvian G. and post. suprasylvian G., and in the deeper area of the brain at three points, i.e., hippocampus, amygdala and hypothalamus, the cats being then exposed to a predetermined amount of hydrogen gas in a chamber in an unanesthetized and unrestrained state.
In order to evaluate the effects of compound Nos. 1 and 2 of the present invention on the regional cerebral blood flow (r-CBF), a predetermined amount of each test compound was administered either perorally (p.o.) in gelatin capsules or by intravenous injection (i.v.) In the latter case, 0.2 mg/kg or 1 mg/kg (body weight) of a selected compound of the present invention was dissolved in a quantity of physiological saline equivalent to 1 ml/kg (body weight) and the total amount of their solution was injected over a period of 10 minutes in a sustained manner through a cannula attached to a vein in the upper thigh; a control (vinpocetine) in an amount equivalent to 1 mg/kg or 5 mg/kg (body weight) was dissolved in a quantity of 10% ascorbic acid equivalent to […] (body weight) and the total amount of the solution was injected over a period of 10 minutes in a sustained manner through a cannula attached to a vein in the upper thigh.
In the r-CBF analysis, a clearance curve was obtained with a computer (Signal Processor 7T17, product of Nippon Electric Co., Ltd. and Sanei Co., Ltd.), transformed into semi-logarithmic values which were then processed by the initial slope method to calculate all the values of r-CBF. Only values having a coefficient of correlation of at least 0.9 for regression line were used as applicable data and the level of significance was determined by the paired-t test for absolute values, with the values before administration of a test compound being taken as a control. The level of significance for the control group was tested by time-series dispersion analysis.

The next data set has as its system basilar artery. Nature of the data set: Vasorelaxation of isolated basilar artery segments. The class given is cell-based, Beagles. The settings on record: 1 × 10^-5 M; for vasorelaxating action: in words. The method, then:
Beagles of either sex weighing about 20 kg were anesthetized with i.v. administration of sodium […] (30 mg/kg) and were sacrificed by rapid exsanguination. After the brain was removed, the basilar artery was dissected out under magnification and was sectional in at 2- to 3-mm intervals. […] The segment was initially stretched at a tension of 400 mg for 1 hour with a force-displacement transducer (SB-1T, Nihon Kohden, Tokyo, Japan) during which time the buffer solution was changed several times. […] The total volume of agents never exceeded 25 μl or 5% of the chamber volume and experiments were done in the dark.

Data set [2] can be described thus: Experiment for acute toxicity (oral LD50). The settings on record: mouse, in vivo, 5-week old male CD-1 (ICR) mice. On the procedure: Nos. 1, 2, 3 and 4 of the present invention were administered orally to 5-week old male CD-1 (ICR) mice and the LD50 values (g/kg) were determined by a routine method.
Data set [3] can be described thus: Experiment for subacute toxicity (30 days oral). Type of data set: in vivo, male rats (F344/crj). The settings on record: deaths/animals. The method, then:
Compounds No. 1, IV, VI and VII were administered orally to male rats (F344/crj) at doses of […] body weight daily for 30 days and body weight gain were measured.

Data set [4] concerns cyclic-GMP content in the thoracic aortae. Nature of the data set: cyclic-GMP content in thoracic aorta rings by radioimmunoassay. The class given is cell-based, Sprague-Dawley male rats. The settings on record: 1×10^-6, 10^-5 or 10^-4 M, 37° C., 30 minutes. On the procedure:
Sprague-Dawley male rats were killed by decapitation, and their thoracic aortae were rapidly removed and immersed in ice-cold Krebs-Henseleit Ringer solution. The blood vessel was cut into rings with a length of about 3 mm and the weight of each wet tissue of the rings was measured. The rings of blood vessels were incubated at 37° C. for 30 minutes in portions of Krebs-Henseleit Ringer solution containing compound No. 1 (1×10^-6, 10^-5 or 10^-4 M) and vinpocetine (10^-4 M) under an atmosphere of 95% O2 - 5% CO2. Trichloroacetic acid (6%) was then added to the solution to stop the reaction and the cyclic-GMP content was determined by radioimunoassay method (YAMASA c-GMP Assay Kit).

[5] abbreviates: minus: vasoconstriction, 0: no effect.
[6] abbreviates: i.v. over 10 minutes, 0.2 mg/kg.

Structures can show the parent of a compound that is named as a salt.

On to `CCC1=Nc2cc(C(=O)O)ccc2Oc2cc(OC)ccc21` [Compound No. 2], for which, in data set [1] (p.o., 10 mg/kg), the Retention time was below 2 h; the “Percent increase of r-CBF, 30 min.” value came out at 0.99%; the “Percent increase of r-CBF, 60 min.” value was found to be 9.1%. Also, in data set [1] (p.o., 20 mg/kg), the Retention time was above 4 h; the “Percent increase of r-CBF, 30 min.” value was 13.8%; the “Percent increase of r-CBF, 60 min.” value is 19.6%. Besides, in data set [1] (p.o., 50 mg/kg), the Retention time is above 4 h; the “Percent increase of r-CBF, 30 min.” value came out at 28.9%; the “Percent increase of r-CBF, 60 min.” value came out at 22.4%. Moreover, the vasorelaxating action result with basilar artery is given as “show vasorelaxating action”. In the data set with basilar artery (setting [5]), this compound had a Vasorelaxation of 5.1 mg. In addition, in data set [2], the 50% lethal dose (LD50) was 4200 to 5000 mg/kg.
In the data set on basilar artery (setting [5]), `CCOC(=O)c1ccc2c(c1)N=C(c1ccccc1)c1ccc(OC)cc1O2` [No. III, reference compound] showed a Vasorelaxation of 0 mg.
Take `CCC1=Nc2cc(C(=O)O)ccc2Oc2cc(OC)ccc21` [2 (Na salt), sodium salt of 3-methoxy-11-ethyldibenzo[b,f][1,4]oxazepin-8-carboxylic acid]: in data set [1] (setting [6]), the Retention time was above 4 h; the “Percent increase of r-CBF, 30 min.” value is 12.1%; the “Percent increase of r-CBF, 60 min.” value is reported as 21.0%. In data set [1] (i.v. over 10 minutes, 1 mg/kg), the Retention time was above 4 h; the “Percent increase of r-CBF, 30 min.” value was 8.1%; the “Percent increase of r-CBF, 60 min.” value turned out to be 10.0%.
Consider `CCOC(=O)c1ccc2c(c1)N=C(CC)c1ccc(OC)cc1O2` [No. IV, reference compound], for which the death in data set [3] (2000 mg/kg daily for 30 days) is 4/6. The compound further had a Vasorelaxation in the data set on basilar artery (setting [5]) of 0 mg.
As to `COc1ccc2c(c1)Oc1ccc(C(=O)O)cc1N=C2C` [Compound No. 1, 3-methoxy-11-methyldibenzo[b,f][1,4]oxazepin-8-carboxylic acid], in data set [4], the “cyclic-GMP content in the thoracic aortae” value was “increased dose-dependently”. The Retention time in data set [1] (p.o., 10 mg/kg) is above 4 h; in data set [1] (p.o., 20 mg/kg), above 4 h; in data set [1] (p.o., 50 mg/kg), above 4 h. For the same compound, the “Percent increase of r-CBF, 30 min.” value in data set [1] (p.o., 10 mg/kg) is 12.9%; in data set [1] (p.o., 20 mg/kg) it was 11.8%; in data set [1] (p.o., 50 mg/kg) it was 14.6%. Besides, the “Percent increase of r-CBF, 60 min.” value worked out at 14.4% in data set [1] (p.o., 10 mg/kg); 11.0% in data set [1] (p.o., 20 mg/kg); 10.0% in data set [1] (p.o., 50 mg/kg). Also, the vasorelaxating action entry with basilar artery is on record as “show vasorelaxating action”. The “Relative Potency (vasorelaxation)” value in the data set on basilar artery (No. 2 = 1.00, minus: vasoconstriction, 0: no effect) worked out at 49.02. This compound also registered a Vasorelaxation with basilar artery (setting [5]) of 250.0 mg. The compound further displayed an LD50 in data set [2] of 3000 to 3500 mg/kg.
Turning to `CCOC(=O)C1=C[C@]2(CC)CCCN3CCc4c(n1c1ccccc41)[C@@H]32` [Vinpocetine, vinpocetine, reference compound], in data set [1] (i.v. over 10 minutes, 1 mg/kg), the “Percent increase of r-CBF, 30 min.” value came to 1.0% and the “Percent increase of r-CBF, 60 min.” value is on record as below 2.3%. For the same compound, in data set [1] (i.v. over 10 minutes, 5 mg/kg), the Retention time was below 1 h; the “Percent increase of r-CBF, 30 min.” value is reported as -0.9%; the “Percent increase of r-CBF, 60 min.” value was 8.3%. In data set [1] (p.o., 20 mg/kg), the Retention time was below 1 h; the “Percent increase of r-CBF, 30 min.” value is 12.3%; the “Percent increase of r-CBF, 60 min.” value is on record as 5.2%.
Take `CCC1Nc2cc(C(=O)O)ccc2Oc2cc(OC)ccc21` (centres unmarked) [No. V, reference compound]: the Vasorelaxation in the data set with basilar artery (setting [5]) came out at 0 mg.
For the compound `COc1ccc2c(c1)Oc1ccc(C(=O)O)cc1N=C2C` [1 (Na salt), sodium salt of 3-methoxy-11-methyldibenzo[b,f][1,4]oxazepin-8-carboxylic acid], in data set [1] (setting [6]), the Retention time is below 4 h; the “Percent increase of r-CBF, 30 min.” value was found to be 9.5%; the “Percent increase of r-CBF, 60 min.” value is recorded as 13.6%. Besides, in data set [1] (i.v. over 10 minutes, 1 mg/kg), the Retention time was above 4 h; the “Percent increase of r-CBF, 30 min.” value is recorded as 13.3%; the “Percent increase of r-CBF, 60 min.” value was 14.7%.
In the case of `CCC1=Nc2cc(C(=O)O)ccc2Oc2cc(O)ccc21` [No. I, reference compound], the Vasorelaxation in the data set with basilar artery (setting [5]) is listed as -20.5 mg.
Regarding `CCC1=Nc2cc(C(=O)O)ccc2Oc2cc(C)ccc21` [No. VII], the death in data set [3] (1000 mg/kg daily for 30 days) is recorded as 5/6.
In the data set with basilar artery (setting [5]), `CCOC(=O)c1ccc2c(c1)N=Cc1ccc(C)cc1O2` [No. II, reference compound] yielded a Vasorelaxation of 0 mg.
